Experimental data published in ChEMBL document CHEMBL1145881, “Pyridone-containing farnesyltransferase inhibitors: synthesis and biological evaluation” (Bioorg Med Chem Lett, 2003).
pEC50, pIC50: −log10 of the molar value.

Key:
[1] = molecular target: T1, Protein farnesyltransferase (Homo sapiens, UniProt P49354+P49356); assay: In vitro effective concentration against farnesyltransferase (FT); format: protein-complex assay
[2] = molecular target: T1, Protein farnesyltransferase; assay: In vitro inhibitory activity against farnesyltransferase (FT); format: protein-complex assay
[3] = molecular target: T2, Geranylgeranyl transferase type I (Homo sapiens, UniProt P49354+P53609); assay: In vitro inhibitory activity against Geranylgeranyl transferase type I; format: protein-complex assay
[4] = molecular target: T1, Protein farnesyltransferase; assay: In vitro effective concentration against farnesyltransferase (FT); NA= Not active; format: protein-complex assay
[5] = molecular target: T1, Protein farnesyltransferase; assay: In vitro inhibition of farnesyltransferase (FT) at 100 nM; format: protein-complex assay
[6] = molecular target: T2, Geranylgeranyl transferase type I; assay: In vitro inhibition of Geranylgeranyl transferase type I; NA means Not active; format: protein-complex assay
[7] = molecular target: T1, Protein farnesyltransferase

SMILES | pEC50 [1] | pIC50 [2] | pIC50 [3] | EC50 [4] | inhibition [5] [%] | IC50 [6] | pEC50 [7]
Cn1cncc1C(OCc1c(-c2cc(F)ccc2F)cc(C#N)c(=O)n1C)c1ccc(C#N)cc1 (stereo not drawn) | 6.96 | 8.57 | 4.82 |  |  |  | 
Cn1cncc1C(OCc1[nH]c(=O)c(C#N)cc1-c1cccc(Cl)c1)c1ccc(C#N)cc1 (stereo not drawn) | < 7.00 | 9.07 | 6.09 |  |  |  | 
Cn1cncc1C(OCc1c(-c2cc(F)cc(Cl)c2)cc(C#N)c(=O)n1C)c1ccc(C#N)cc1 (stereo not drawn) | 7.77 | 9.15 | 5.74 |  |  |  | 
Cn1cncc1C(OCc1c(-c2ccc(OC(F)(F)F)cc2)cc(C#N)c(=O)n1C)c1ccc(C#N)c(-c2cccc(Cl)c2)c1 (stereo not drawn) | < 7.00 | 8.89 | 7.52 |  |  |  | 
Cn1c(COC(c2ccc(C#N)cc2)c2cncs2)c(-c2cc(Cl)cc(Cl)c2)cc(C#N)c1=O (stereo not drawn) | < 7.00 | 8.72 | < 5.00 |  |  |  | 
Cn1cncc1C(OCc1ccc(C#N)cn1)c1ccc(C#N)c(-c2cccc3ccccc23)c1 (stereo not drawn) | 8.23 | 9.14 |  |  |  |  | 
Cn1cncc1C(OCc1c(-c2cccc(Cl)c2)cc(C#N)c(=O)n1C)c1ccc(C#N)c(Cl)c1 (stereo not drawn) | 7.62 | 9.01 | 6.05 |  |  |  | 
Cn1cncc1C(OCc1c(-c2ccc(Cl)c(Cl)c2)cc(C#N)c(=O)n1C)c1ccc(C#N)cc1 (stereo not drawn) | 7.07 | 9.31 | 5.64 |  |  |  | 
Cn1cncc1C(OCc1c(-c2cccc(Cl)c2Cl)cc(C#N)c(=O)n1C)c1ccc(C#N)cc1 (stereo not drawn) |  | 8.21 | 5.60 | Not Active |  |  | 
Cn1cncc1C(OCc1c(-c2ccc(F)cc2F)cc(C#N)c(=O)n1C)c1ccc(C#N)cc1 (stereo not drawn) | < 7.00 | 8.26 | 5.37 |  |  |  | 
Cn1cncc1C(OCc1c(-c2cccc(Br)c2)cc(C#N)c(=O)n1C)c1ccc(C#N)cc1 (stereo not drawn) | 8.68 | 9.29 | 5.47 |  |  |  | 
Cn1cncc1C(OCc1c(-c2cccc(Cl)c2)cc(C#N)c(=O)n1C)c1ccc(C#N)c(Br)c1 (stereo not drawn) | 7.41 | 8.89 | 6.21 |  |  |  | 
Cc1ncc(C(OCc2c(-c3cccc(Cl)c3)cc(C#N)c(=O)n2C)c2ccc(C#N)cc2)n1C (stereo not drawn) |  | 8.28 | < 6.05 |  | 75 |  | 
CCOc1cccc(-c2cc(C#N)c(=O)n(C)c2COC(c2ccc(C#N)cc2)c2cncn2C)c1 (stereo not drawn) | 9.09 | 9.17 | 5.82 |  |  |  | 
Cn1cncc1C(OCc1c(-c2cccc(F)c2)cc(C#N)c(=O)n1C)c1ccc(C#N)cc1 (stereo not drawn) | 7.96 | 8.68 | < 5.00 |  |  |  | 
Cn1cncc1C(OCc1c(-c2cccc(F)c2F)cc(C#N)c(=O)n1C)c1ccc(C#N)cc1 (stereo not drawn) |  | 8.20 | 5.47 | Not Active |  |  | 
Cn1cncc1C(OCc1c(-c2ccc(F)c(F)c2)cc(C#N)c(=O)n1C)c1ccc(C#N)cc1 (stereo not drawn) | 8.00 | 8.82 | 5.26 |  |  |  | 
Cn1cncc1C(OCc1c(-c2cc(Cl)cc(Cl)c2)cc(C#N)c(=O)n1C)c1ccc(C#N)c(Br)c1 (stereo not drawn) | < 7.00 | 9.38 | 6.54 |  |  |  | 
Cn1cncc1C(OCc1c(-c2ccc(OC(F)(F)F)cc2)cc(C#N)c(=O)n1C)c1ccc(C#N)c(Cl)c1 (stereo not drawn) | 7.82 | 9.44 | 6.82 |  |  |  | 
Cn1cncc1C(OCc1c(-c2ccc(OC(F)(F)F)cc2)cc(C#N)c(=O)n1C)c1ccc(C#N)cc1 (stereo not drawn) | 8.41 | 9.14 | 5.85 |  |  |  | 
Cn1cncc1C(OCc1c(-c2ccc3c(c2)OCO3)cc(C#N)c(=O)n1C)c1ccc(C#N)cc1 (stereo not drawn) | 8.68 | 9.38 | 5.48 |  |  |  | 

SMILES | pEC50 [1] | pIC50 [2] | pIC50 [3] | EC50 [4] | inhibition [5] [%] | IC50 [6] | pEC50 [7]
Cn1c(COC(c2ccc(C#N)cc2)c2c[nH]cn2)c(-c2cccc(Cl)c2)cc(C#N)c1=O (stereo not drawn) |  | 7.15 |  | Not Active |  | Not Active | 
Cn1cncc1C(OCc1c(-c2cccc(OC(F)(F)F)c2)cc(C#N)c(=O)n1C)c1ccc(C#N)cc1 (stereo not drawn) | 8.41 | 9.38 | 5.98 |  |  |  | 
Cn1cncc1C(OCc1c(-c2cccc(Cl)c2)cc(C#N)c(=O)n1C)c1ccc(C#N)c(-c2cccc(Cl)c2)c1 (stereo not drawn) | 7.68 | 9.00 | 7.03 |  |  |  | 
Cn1cncc1C(OCc1c(-c2cccc(Cl)c2)cc(C#N)c(=O)n1C)c1ccc(C#N)c(I)c1 (stereo not drawn) | 7.06 | 9.12 | < 6.00 |  |  |  | 
Cn1cncc1C(OCc1c(-c2ccc(F)c(Cl)c2)cc(C#N)c(=O)n1C)c1ccc(C#N)cc1 (stereo not drawn) | 7.82 | 8.96 | 5.72 |  |  |  | 
Cn1cncc1C(OCc1c(-c2cc(Cl)cc(Cl)c2)cc(C#N)c(=O)n1C)c1ccc(C#N)c(-c2cccc(Cl)c2)c1 (stereo not drawn) |  | 8.70 | 6.92 | Not Active |  |  | 
Cn1cncc1C(OCc1c(-c2ccc(OC(F)(F)F)cc2)cc(C#N)c(=O)n1C)c1ccc(C#N)c(-c2ccc(Cl)cc2)c1 (stereo not drawn) | < 7.00 | 8.19 | 6.80 |  |  |  | 
Cn1cncc1C(OCc1c(-c2cc(Cl)cc(Cl)c2)cc(C#N)c(=O)n1C)c1ccc(C#N)c(Cl)c1 (stereo not drawn) | 7.80 | 9.11 | 6.72 |  |  |  | 
Cn1cncc1C(OCc1c(-c2ccc3c(c2)OC(F)(F)O3)cc(C#N)c(=O)n1C)c1ccc(C#N)cc1 (stereo not drawn) | 7.72 | 9.16 | 5.21 |  |  |  | 
Cn1cncc1C(OCc1c(-c2cc(Cl)ccc2Cl)cc(C#N)c(=O)n1C)c1ccc(C#N)cc1 (stereo not drawn) |  | 8.80 | 5.54 |  |  |  | 8.92
Cn1cncc1C(OCc1c(-c2cccc(Cl)c2)cc(C#N)c(=O)n1CC1CC1)c1ccc(C#N)cc1 (stereo not drawn) | 8.32 | 9.30 | 5.70 |  |  |  | 
Cn1cncc1C(OCc1c(-c2cccc(Cl)c2F)cc(C#N)c(=O)n1C)c1ccc(C#N)cc1 (stereo not drawn) | 7.62 | 8.74 | 5.82 |  |  |  | 
CCCn1c(COC(c2ccc(C#N)cc2)c2cncn2C)c(-c2cccc(Cl)c2)cc(C#N)c1=O (stereo not drawn) | 7.92 | 10.44 | 5.52 |  |  |  | 
Cn1cncc1C(OCc1c(-c2ccc(OC(F)(F)F)cc2)cc(C#N)c(=O)n1C)c1ccc(C#N)c(Br)c1 (stereo not drawn) | 8.00 | 9.05 | 6.66 |  |  |  | 
Cn1cncc1C(OCc1c(-c2ccc(OC(F)(F)F)cc2)cc(C#N)c(=O)n1C)c1ccc(C#N)c(-c2ccccc2Cl)c1 (stereo not drawn) | < 7.00 | 8.41 | 6.96 |  |  |  | 
Cn1cncc1C(OCc1c(-c2cc(F)cc(F)c2)cc(C#N)c(=O)n1C)c1ccc(C#N)cc1 (stereo not drawn) | 8.14 | 9.08 | 4.92 |  |  |  | 
Cn1c(COC(c2ccc(C#N)cc2)c2cncs2)c(-c2ccc(OC(F)(F)F)cc2)cc(C#N)c1=O (stereo not drawn) |  |  |  | Not Active |  |  | 
Cn1cncc1C(OCc1c(-c2cc(Cl)cc(Cl)c2)cc(C#N)c(=O)n1C)c1ccc(C#N)cc1 (stereo not drawn) | 8.17 | 9.34 | 5.77 |  |  |  | 
COc1cccc(-c2cc(C#N)c(=O)n(C)c2COC(c2ccc(C#N)cc2)c2cncn2C)c1 (stereo not drawn) | 8.33 | 9.39 | 5.49 |  |  |  | 
CCn1c(COC(c2ccc(C#N)cc2)c2cncn2C)c(-c2cccc(Cl)c2)cc(C#N)c1=O (stereo not drawn) | 8.54 | 9.14 | 5.48 |  |  |  | 
Cn1cncc1C(OCc1c(-c2cc(Cl)cc(Cl)c2)cc(C#N)c(=O)n1C)c1ccc(C#N)c(I)c1 (stereo not drawn) | < 7.00 | 9.09 | 5.12 |  |  |  | 
